# Assay results from ChEMBL document CHEMBL1143809, “New bis-N9-(methylphenylmethyl)purine derivatives: synthesis and antitumor activity” (2007).
# Legend:
# Assay type in all cases: functional
# [1] = tested on: M14; assay: Growth inhibition of human M14 cells after 48 hrs by SRB protein assay; settings: M14, 48 h
# [2] = tested on: SK-MEL-2; assay: Growth inhibition of human SK-MEL-2 cells after 48 hrs by SRB protein assay; settings: SK-MEL-2, 48 h
# [3] = tested on: SK-MEL-28; assay: Growth inhibition of human SK-MEL-28 cells after 48 hrs by SRB protein assay; settings: SK-MEL-28, 48 h
# [4] = tested on: UACC-257; assay: Growth inhibition of human UACC257 cells after 48 hrs by SRB protein assay; settings: UACC-257, 48 h
# [5] = tested on: IGROV-1; assay: Growth inhibition of human IGROV1 cells after 48 hrs by SRB protein assay; settings: IGROV-1, 48 h
# [6] = tested on: OVCAR-4; assay: Growth inhibition of human OVCAR4 cells after 48 hrs by SRB protein assay; settings: OVCAR-4, 48 h
# [7] = tested on: MCF7; assay: Anticancer activity against human MCF7 cells assessed as growth at 100 uM after 48 hrs by SRB protein assay relative to control; settings: MCF7, 48 h, read-out: Activity
# [8] = tested on: SF-268; assay: Anticancer activity against human SF268 cells assessed as growth at 100 uM after 48 hrs by SRB protein assay relative to control; settings: SF-268, 48 h, read-out: Activity
# [9] = tested on: CCRF-CEM; assay: Growth inhibition of human CCRF-CEM cells after 48 hrs by SRB protein assay
# [10] = tested on: K562; assay: Growth inhibition of human K562 cells after 48 hrs by SRB protein assay; settings: K562, 48 h
# [11] = tested on: EKVX; assay: Growth inhibition of human EKVX cells after 48 hrs by SRB protein assay
# [12] = Growth inhibition of human NCL-H226 cells after 48 hrs by SRB protein assay; settings: NCL-H226, 48 h
# [13] = Growth inhibition of human NCL-H322M cells after 48 hrs by SRB protein assay
# [14] = tested on: NCI-H460; assay: Growth inhibition of human NCL-H460 cells after 48 hrs by SRB protein assay; settings: NCI-H460, 48 h
# [15] = Growth inhibition of human NCL-H522 cells after 48 hrs by SRB protein assay; settings: NCL-H522, 48 h
# [16] = tested on: COLO 205; assay: Growth inhibition of human COLO205 cells after 48 hrs by SRB protein assay; settings: COLO 205, 48 h
# [17] = tested on: HCC 2998; assay: Growth inhibition of human HCC2998 cells after 48 hrs by SRB protein assay; settings: HCC 2998, 48 h
# [18] = tested on: HT-29; assay: Growth inhibition of human HT29 cells after 48 hrs by SRB protein assay; settings: HT-29, 48 h
# [19] = tested on: KM12; assay: Growth inhibition of human KM12 cells after 48 hrs by SRB protein assay; settings: KM12, 48 h
# [20] = tested on: SW-620; assay: Growth inhibition of human SW620 cells after 48 hrs by SRB protein assay; settings: SW-620, 48 h
# [21] = tested on: SF-268; assay: Growth inhibition of human SF268 cells after 48 hrs by SRB protein assay; settings: SF-268, 48 h
# [22] = tested on: SNB-19; assay: Growth inhibition of human SNB19 cells after 48 hrs by SRB protein assay; settings: SNB-19, 48 h
# [23] = tested on: SNB-75; assay: Growth inhibition of human SNB75 cells after 48 hrs by SRB protein assay; settings: SNB-75, 48 h
# [24] = tested on: U-251; assay: Growth inhibition of human U251 cells after 48 hrs by SRB protein assay; settings: U-251, 48 h
# [25] = Growth inhibition of human LOX MIVI cells after 48 hrs by SRB protein assay
# [26] = tested on: 786-0; assay: Growth inhibition of human 786-0 cells after 48 hrs by SRB protein assay; settings: 786-0, 48 h
# [27] = tested on: ACHN; assay: Growth inhibition of human ACHN cells after 48 hrs by SRB protein assay
# [28] = tested on: UO-31; assay: Growth inhibition of human UO31 cells after 48 hrs by SRB protein assay; settings: UO-31, 48 h
# [29] = tested on: PC-3; assay: Growth inhibition of human PC3 cells after 48 hrs by SRB protein assay; settings: PC-3, 48 h
# [30] = tested on: NCI/ADR-RES; assay: Growth inhibition of human NCI/ADR-RES cells after 48 hrs by SRB protein assay
# [31] = tested on: HOP-92; assay: Growth inhibition of human HOP92 cells after 48 hrs by SRB protein assay; settings: HOP-92, 48 h
# [32] = tested on: HCT-116; assay: Growth inhibition of human HCT116 cells after 48 hrs by SRB protein assay; settings: HCT-116, 48 h
# [33] = tested on: MDA-MB-231; assay: Growth inhibition of human MDA-MB-231 cells after 48 hrs by SRB protein assay; settings: MDA-MB-231, 48 h
# [34] = read-out: LC50 (the source's name)
smiles,measurement,setting,value
Clc1nc(Cl)c2ncn(Cc3ccccc3Cn3cnc4c(Cl)nc(Cl)nc43)c2n1,GI50,[1],15.8 µM
same,LC50,[1],61.7 µM
same,TGI,[1],38.9 µM
same,GI50,[2],6.31 µM
same,TGI,[2],26.9 µM
same,CC50,[2]; [34],> 100 µM
same,GI50,[3],3.98 µM
same,LC50,[3],> 100 µM
same,TGI,[3],24.6 µM
same,GI50,[4],7.94 µM
same,TGI,[4],23.4 µM
same,CC50,[4]; [34],61.7 µM
same,GI50,[5],5.25 µM
same,LC50 (50% lethal concentration),[5],57.5 µM
same,TGI,[5],17.8 µM
same,GI50,[6],2.09 µM
same,LC50,[6],8.71 µM
same,TGI,[6],4.23 µM
same,growth at 100 µM,[7],0%
same,growth at 100 µM,[8],0%
same,GI50,[9],1.41 µM
same,TGI,[9],3.09 µM
same,CC50,[9]; [34],6.61 µM
same,GI50,[10],1.95 µM
same,TGI,[10],4.47 µM
same,CC50,[10]; [34],15.5 µM
same,GI50,[11],1.02 µM
same,LC50,[11],6.76 µM
same,TGI,[11],2.63 µM
same,GI50,[12],3.09 µM
same,LC50,[12],26.9 µM
same,TGI,[12],7.24 µM
same,GI50,[13],14.5 µM
same,TGI,[13],27.5 µM
same,CC50,[13]; [34],52.5 µM
same,GI50,[14],3.98 µM
same,TGI,[14],17.4 µM
same,CC50,[14]; [34],89.1 µM
same,GI50,[15],3.39 µM
same,LC50,[15],> 100 µM
same,TGI,[15],9.12 µM
same,GI50,[16],3.16 µM
same,LC50,[16],> 100 µM
same,TGI,[16],> 100 µM
same,LC50,[17],21.4 µM
same,TGI,[17],4.9 µM
same,GI50,[18],3.31 µM
same,LC50,[18],> 100 µM
same,TGI,[18],> 100 µM
same,GI50,[19],3.31 µM
same,LC50 (concentration killing 50% of cells),[19],34.7 µM
same,TGI,[19],10 µM
same,GI50,[20],1.86 µM
same,TGI,[20],3.98 µM
same,CC50,[20]; [34],8.32 µM
same,GI50,[21],6.76 µM
same,LC50,[21],95.5 µM
same,TGI,[21],26.9 µM
same,GI50,[22],3.98 µM
same,TGI,[22],> 100 µM
same,CC50,[22]; [34],> 100 µM
same,GI50,[23],5.13 µM
same,TGI,[23],21.9 µM
same,CC50,[23]; [34],81.3 µM
same,GI50,[24],1.78 µM
same,TGI,[24],3.55 µM
same,CC50,[24]; [34],69.2 µM
same,GI50,[25],1.15 µM
same,LC50,[25],6.61 µM
same,TGI,[25],2.75 µM
same,GI50,[26],10 µM
same,TGI,[26],25.1 µM
same,CC50,[26]; [34],63.1 µM
same,GI50,[27],1.77 µM
same,LC50,[27],5.75 µM
same,TGI,[27],3.24 µM
same,GI50,[28],1.95 µM
same,LC50,[28],7.41 µM
same,TGI,[28],3.8 µM
same,GI50,[29],2.24 µM
same,TGI,[29],6.76 µM
same,CC50,[29]; [34],38.9 µM
same,GI50,[30],20.4 µM
same,LC50,[30],91.2 µM
same,TGI,[30],43.6 µM
same,GI50,[31],1.91 µM
same,LC50,[31],9.12 µM
same,TGI,[31],4.17 µM
same,GI50,[32],3.31 µM
same,TGI,[32],13.8 µM
same,CC50,[32]; [34],> 100 µM
same,GI50,[33],1.82 µM
same,LC50 (50% lethal concentration),[33],6.46 µM
same,TGI,[33],3.39 µM
